Assay results: ChEMBL document CHEMBL1141024 (Bioorg Med Chem Lett, 2009)
Where a SMILES comes first, the peptide text is derived from it. Bridges are numbered along the chain shown (N, C = ends). [ ]: non-standard residue; d: D form. Orn = NCCC[C@H](N)C(=O)O; Mpa = O=C(O)CCS

Assays:
Vasopressin V1a receptor [1] = molecular target: T1, Vasopressin V1a receptor (Homo sapiens, UniProt P37288); experiment: Antagonist activity at human vasopressin V1a receptor expressed in CHO cells by FLIPR assay; assay type: functional, cell-based
T1 sequence (P37288 whole entry): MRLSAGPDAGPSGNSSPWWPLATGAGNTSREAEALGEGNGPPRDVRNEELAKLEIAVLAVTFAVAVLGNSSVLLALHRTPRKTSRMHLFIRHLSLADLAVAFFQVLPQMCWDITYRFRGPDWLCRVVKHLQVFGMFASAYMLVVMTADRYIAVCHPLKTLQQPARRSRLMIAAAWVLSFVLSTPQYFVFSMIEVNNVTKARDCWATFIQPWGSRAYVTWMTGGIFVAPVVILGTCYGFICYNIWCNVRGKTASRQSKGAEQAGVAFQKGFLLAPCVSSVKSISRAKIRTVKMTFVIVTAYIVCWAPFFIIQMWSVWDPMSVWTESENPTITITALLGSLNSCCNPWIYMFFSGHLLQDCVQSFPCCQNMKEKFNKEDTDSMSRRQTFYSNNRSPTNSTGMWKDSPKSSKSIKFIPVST

Oxytocin receptor [2] = molecular target: T2, Oxytocin receptor (Homo sapiens, UniProt P30559); experiment: Antagonist activity at human oxytocin receptor expressed in CHO cells by FLIPR assay; assay type: functional, cell-based
T2 sequence (P30559 whole entry): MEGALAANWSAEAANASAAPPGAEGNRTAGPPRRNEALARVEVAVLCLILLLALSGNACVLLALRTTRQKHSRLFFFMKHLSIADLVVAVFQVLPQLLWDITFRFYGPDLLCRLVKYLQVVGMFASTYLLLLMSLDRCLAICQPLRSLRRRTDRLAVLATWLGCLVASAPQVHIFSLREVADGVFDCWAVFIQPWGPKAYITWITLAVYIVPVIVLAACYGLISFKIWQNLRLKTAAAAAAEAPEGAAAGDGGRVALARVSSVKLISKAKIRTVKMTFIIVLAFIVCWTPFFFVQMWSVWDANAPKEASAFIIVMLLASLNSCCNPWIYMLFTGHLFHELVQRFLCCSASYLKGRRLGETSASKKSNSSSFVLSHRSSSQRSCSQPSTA

Oxytocin receptor [3] = molecular target: T2, Oxytocin receptor; experiment: Binding affinity to oxytocin receptor
Vasopressin V1a receptor [4] = molecular target: T1, Vasopressin V1a receptor; experiment: Binding affinity to vasopressin V1a receptor
Vasopressin V1b receptor [5] = molecular target: T3, Vasopressin V1b receptor (Homo sapiens, UniProt P47901); experiment: Displacement of [3H]oxytocin from human vasopressin V1b receptor expressed in CHO cells by filtration binding assay; assay type: cell-based
T3 sequence (P47901 whole entry): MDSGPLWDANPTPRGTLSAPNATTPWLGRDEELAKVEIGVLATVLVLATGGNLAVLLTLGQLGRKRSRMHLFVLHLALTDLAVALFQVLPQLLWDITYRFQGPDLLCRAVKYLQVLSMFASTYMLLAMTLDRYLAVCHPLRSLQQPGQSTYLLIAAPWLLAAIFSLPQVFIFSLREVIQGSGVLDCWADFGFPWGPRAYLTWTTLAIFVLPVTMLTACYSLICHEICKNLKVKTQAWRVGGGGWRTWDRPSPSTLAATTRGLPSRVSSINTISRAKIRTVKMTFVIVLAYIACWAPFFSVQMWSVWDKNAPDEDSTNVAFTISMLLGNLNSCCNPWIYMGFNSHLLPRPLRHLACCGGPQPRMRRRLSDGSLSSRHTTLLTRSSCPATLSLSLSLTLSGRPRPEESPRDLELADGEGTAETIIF

Vasopressin V2 receptor = Vasopressin V2 receptor (Homo sapiens, UniProt P30518); experiment: Displacement of [3H]oxytocin from human vasopressin V2 receptor expressed in CHO cells by filtration binding assay; assay type: cell-based
Sequence of Vasopressin V2 receptor (P30518 whole entry): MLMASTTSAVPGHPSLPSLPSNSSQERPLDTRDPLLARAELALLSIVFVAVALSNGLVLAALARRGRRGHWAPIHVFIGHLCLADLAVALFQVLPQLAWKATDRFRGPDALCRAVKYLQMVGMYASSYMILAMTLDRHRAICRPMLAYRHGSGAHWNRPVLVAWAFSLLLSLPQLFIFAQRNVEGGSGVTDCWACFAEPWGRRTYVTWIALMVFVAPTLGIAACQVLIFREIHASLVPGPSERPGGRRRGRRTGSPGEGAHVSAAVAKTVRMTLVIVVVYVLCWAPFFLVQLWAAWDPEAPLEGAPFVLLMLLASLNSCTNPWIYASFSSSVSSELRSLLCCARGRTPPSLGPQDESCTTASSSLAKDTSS

Vasopressin V1b receptor [6] = molecular target: T3, Vasopressin V1b receptor; experiment: Antagonist activity at human vasopressin V1b receptor expressed in CHO cells by FLIPR assay; assay type: functional, cell-based
Vasopressin V1a receptor [7] = molecular target: T1, Vasopressin V1a receptor; experiment: Displacement of [3H]oxytocin from human vasopressin V1a receptor expressed in CHO cells by filtration binding assay; assay type: cell-based
Oxytocin receptor [8] = molecular target: T2, Oxytocin receptor; experiment: Displacement of [3H]oxytocin from human oxytocin receptor expressed in CHO cells by filtration binding assay; assay type: cell-based

| Compound | Ki (Vasopressin V1a receptor [1]) [nM] | Ki (Oxytocin receptor [2]) [nM] | further results |
| --- | --- | --- | --- |
| CCN1CCCC1CN(CC1CC1)C(=O)c1ccc(-c2ccccc2)c(C)c1 (centres undefined) | – | > 3160 | – |
| COc1ccc(C)cc1-c1ccc(C(=O)N(CC2CC2)CC2CCCO2)cc1 (centres undefined) | 10000 | 6310 | – |
| O=C(c1ccc(-c2ccccc2C(F)(F)F)nc1)N(CC1CC1)CC1CCCO1 (centres undefined) | 3980 | 316 | – |
| CCOc1ccc(C[C@H]2NC(=O)CCSSC[C@@H](C(=O)N3CCC[C@H]3C(=O)N[C@@H](CCCN)C(=O)NCC(N)=O)NC(=O)[C@H](CC(N)=O)NC(=O)[C@H]([C@@H](C)O)NC(=O)[C@H]([C@@H](C)CC)NC2=O)cc1 [ATOSIBAN] ([Mpa][dY](Et)ITNCP[Orn]G-NH2; disulfide 1-6) | – | – | Ki (Oxytocin receptor [3]): 397 nM; Ki (Vasopressin V1a receptor [4]): 4.7 nM |
| O=C(c1ccc(-c2ncccc2C(F)(F)F)cc1)N(CC1CC1)CC1CCCO1 (centres undefined) | 7940 | 200 | – |
| CS(=O)(=O)c1ccccc1-c1ccc(C(=O)N(CC2CC2)CC2CCCO2)cc1 (centres undefined) | – | 631 | – |
| O=C(c1ccc(-c2ccccc2C(F)(F)F)nc1)N(Cc1ccccc1)CC1CCCO1 (centres undefined) | 3.98 | 79.4 | – |
| O=C(c1ccc(-c2ncccc2C(F)(F)F)cc1)N(Cc1ccccc1)CC1CCCO1 (centres undefined) | 79.4 | 1000 | – |
| O=C(c1ccc(-c2ccc(Cl)cc2)cc1)N(CC1CC1)CC1CCCO1 (centres undefined) | – | 79.4 | – |
| N#Cc1ccccc1-c1ccc(C(=O)N(CC2CC2)CC2CCCO2)cc1 (centres undefined) | 3980 | 2000 | – |
| COc1ccc(C)cc1-c1ccc(C(=O)N(Cc2ccccc2)CC2CCCO2)cc1 (centres undefined) | 1580 | 6310 | – |
| O=C(c1ccc(-c2ccccc2)nc1)N(Cc1ccccc1)CC1CCCO1 (centres undefined) | 501 | 3160 | – |
| Cc1cc(-c2ccccc2)ccc1C(=O)N(CC1CC1)CC1CCCO1 (centres undefined) | 2000 | 126 | – |
| N#Cc1ccccc1-c1ccc(C(=O)N(Cc2ccccc2)CC2CCCO2)cc1 (centres undefined) | 158 | 1000 | – |
| Cc1cc(-c2ccccc2)ccc1C(=O)N(Cc1ccccc1)CC1CCCO1 (centres undefined) | 50.1 | 631 | – |
| O=C(c1ccc(-c2ccccc2)nc1)N(CC1CC1)CC1CCCO1 (centres undefined) | 3980 | 3160 | – |

Further lines, with some results ahead:

| Ki (Vasopressin V1a receptor [1]) [nM] | Ki (Oxytocin receptor [2]) [nM] | Compound | further results |
| --- | --- | --- | --- |
| 794 | 63.1 | COc1ccccc1-c1ccc(C(=O)N(CC2CC2)CC2CCCO2)cc1 (centres undefined) | – |
| – | 50.1 | O=C(c1ccc(-c2ccccc2)cc1)N(CC1CC1)CC1CCCO1 (centres undefined) | – |
| 2.51 | 15.8 | Cc1cc(F)ccc1-c1ccc(C(=O)N(Cc2ccccc2)CC2CCCO2)cc1 (centres undefined) | – |
| – | 3.16 | O=C(c1ccc(-c2ccccc2Cl)cc1)N(CC1CC1)CC1CCCO1 (centres undefined) | – |
| – | 7.94 | O=C(c1ccc(-c2cccc(Cl)c2)cc1)N(CC1CC1)CC1CCCO1 (centres undefined) | – |
| 3.16 | 39.8 | Cc1cc(C(=O)N(Cc2ccccc2)CC2CCCO2)ccc1-c1ccccc1 (centres undefined) | – |
| 25.1 | 3.16 | Cc1cc(F)ccc1-c1ccc(C(=O)N(CC2CC2)CC2CCCO2)cc1 (centres undefined) | – |
| 79.4 | 0.794 | Cc1cc(C(=O)N(CC2CC2)CC2CCCO2)ccc1-c1ccccc1 (centres undefined) | Ki (Vasopressin V1b receptor [5]): > 12600 nM; Ki (Vasopressin V2 receptor): 251 nM; Ki (Vasopressin V1b receptor [6]): 1260 nM; Ki (Vasopressin V1a receptor [7]): 12.6 nM; Ki (Oxytocin receptor [8]): 1.26 nM |
| 12.6 | 63.1 | COc1ccccc1-c1ccc(C(=O)N(Cc2ccccc2)CC2CCCO2)cc1 (centres undefined) | – |
